For one assay, the system named is E. coli ATCC 25922. As to the kind of experiment: MIC, broth microdilution (CLSI), ATCC reference strain. It is filed as cell-based, Escherichia coli. To be noted: E. coli ATCC 25922. As to the method: (§1) The minimum inhibitory concentration (MIC) of synthetic peptides was determined using the broth microdilution method in cation-adjusted Mueller-Hinton broth (MHB2 – Sigma-Aldrich, St. Louis, MO, United States), according to the recommendations of the Clinical and Laboratory Standards Institute ([CLSI, 2012]), against four reference strains, namely, P. aeruginosa ATCC 27853, E. coli ATCC 25922, S. aureus ATCC 25923 and Enterococcus faecalis ATCC 29212. MIC values of peptide 3.1-PP4 were also determined against MDR clinical isolates of P. aeruginosa (PA002, PA004, Pa3, Pa4), E. coli (Ec1, Ec2, EC001, EC002, EC003) and K. pneumoniae (KP004, KP007, KP010). The peptides were tested in the concentration range of 1–1024 μg/mL. The minimum bactericidal concentration (MBC) was determined as previously reported ([Bessa et al., 2018]). According to CLSI guidelines for antimicrobial susceptibility testing, MIC values were determined for all peptides against ATCC reference strains of two Gram-positive (S. aureus ATCC 25923 and E. faecalis ATCC 29212), and two Gram-negative (P. aeruginosa ATCC 27853 and E. coli ATCC 25922) bacterial species, and are shown in Table 2.
(Dilution methods test growth across graded concentrations, often in twofold steps.)

The test system of a further assay is S. aureus ATCC 25923. Described as above. It is filed as cell-based, Staphylococcus aureus. As to the method:
as §1

Another assay concerns E. faecalis ATCC 29212. Described as above. The assay is classed as cell-based, Enterococcus faecalis. On the procedure: as §1
Assay [1] concerns MDR clinical isolates of K. pneumoniae (KP004, KP007, KP010). The assay is classed as cell-based, Klebsiella pneumoniae. Conditions: for MIC: MHB2. On the procedure: as §1, with “2018]).” for “2018]). According to CLSI guidelines for antimicrobial susceptibility testing, MIC values were determined for all peptides against ATCC reference strains of two Gram-positive (S. aureus ATCC 25923 and E. faecalis ATCC 29212), and two Gram-negative (P. aeruginosa ATCC 27853 and E. coli ATCC 25922) bacterial species, and are shown in Table 2.”
In view of the above results, peptide conjugate 3.1-PP4 was selected for further investigation of its activity against MDR isolates of three Gram-negative bacterial species, namely, P. aeruginosa (four isolates), E. coli (five isolates), and K. pneumoniae (four isolates), whose antimicrobial resistance patterns are provided in the Supplementary Table S1. MDR isolates of K. pneumoniae were included in this analysis given (i) the high prevalence of K. pneumoniae in HAI ([Zheng et al., 2017]), (ii) that K. pneumoniae isolates used are carbanepem-resistant strains of an Enterobacteriaceae species, meaning that they are class 1 priority pathogens for the research and development of new antibiotics according to the WHO ([WHO, 2017]), and (iii) K. pneumoniae bacteria are usually better biofilm producers than the other Enterobacteriaceae species used, E. coli ([Reisner et al., 2006]). MIC values obtained are shown in Table 3, and confirm peptide’s 3.1-PP4 potent action against Gram-negative bacteria, including MDR isolates, with a selectivity index (SI), i.e., ratio of IC50 values for mammalian vs. bacterial cells, ranging from ca. 9–69. In fact, for P. aeruginosa and E. coli, MIC against MDR isolates were in the same range, or below, of those previously found for ATCC reference strains (Table 2). For K. pneumoniae, MIC values ranged between 1 and 4 μM, which is remarkable.

Assay [2] deals with preformed biofilms of MDR K. pneumoniae isolates. As to the kind of experiment: Biofilm metabolic activity (MTT). It is filed as cell-based, Klebsiella pneumoniae. To be noted: 20 × MIC, 24 h at 37°C, absorbance 570 nm. On the procedure:
The respective control biofilms were equally formed but in absence of the peptide (only TSB medium was used). Afterward, the bacterial metabolic activity of biofilms was quantified after adding 3-(4,5-dimethylthiazole-2-yl)-2,5-diphenyl tetrazolium bromide (MTT, 0.5 mg/mL – Sigma-Aldrich, St. Louis, MO, United States) for 3 h at 37°C in the dark. DMSO was used to dissolve the formazan crystals formed and the absorbance at 570 nm was measured. Two independent experiments were performed in four replicates.
The influence of the peptide on the metabolic activity of preformed biofilms of one P. aeruginosa (PA004) and three K. pneumoniae (KP004, KP007, and KP010) isolates was also assessed, through a standard MTT assay.

For assay [3], the system named is multidrug-resistant isolates of Klebsiella pneumoniae, E. coli, and P. aeruginosa. It is filed as cell-based. On the procedure: as §1, with “2018]).” for “2018]). According to CLSI guidelines for antimicrobial susceptibility testing, MIC values were determined for all peptides against ATCC reference strains of two Gram-positive (S. aureus ATCC 25923 and E. faecalis ATCC 29212), and two Gram-negative (P. aeruginosa ATCC 27853 and E. coli ATCC 25922) bacterial species, and are shown in Table 2.”
(§2) In view of the above results, peptide conjugate 3.1-PP4 was selected for further investigation of its activity against MDR isolates of three Gram-negative bacterial species, namely, P. aeruginosa (four isolates), E. coli (five isolates), and K. pneumoniae (four isolates), whose antimicrobial resistance patterns are provided in the Supplementary Table S1. […]

In assay [4] the test system is MDR isolates of P. aeruginosa, E. coli and K. pneumoniae. Briefly: Minimum bactericidal concentration (MBC). The assay is classed as cell-based. Conditions: all MDR isolates tested. As to the method: as §1, with “2018]).” for “2018]). According to CLSI guidelines for antimicrobial susceptibility testing, MIC values were determined for all peptides against ATCC reference strains of two Gram-positive (S. aureus ATCC 25923 and E. faecalis ATCC 29212), and two Gram-negative (P. aeruginosa ATCC 27853 and E. coli ATCC 25922) bacterial species, and are shown in Table 2.”
as §2

≈ marks a conversion by molar mass, not a printed value. Where two headings read alike, the source gives them in different places. Peptide text beside a SMILES is read from it.

What is called MIC is the smallest concentration in the dilution series that meets the test's criterion for growth inhibition. On to `CC(C)C[C@H](NC(=O)[C@H](Cc1c[nH]c2ccccc12)NC(=O)[C@H](CCCCN)NC(=O)[C@H](CC(C)C)NC(=O)[C@H](CC(C)C)NC(=O)[C@H](CCCCN)NC(=O)[C@@H](N)CCCCN)C(=O)N[C@@H](CC(C)C)C(=O)N[C@@H](CCCCN)C(=O)N[C@@H](CC(C)C)C(=O)N[C@@H](CC(C)C)C(=O)N[C@@H](CCCCN)C(=O)N[C@H](C(=O)N[C@H](C(=O)N[C@@H](CCCCN)C(=O)N[C@@H](CO)C(N)=O)[C@@H](C)O)[C@@H](C)O` [Peptide 3.1-PP4] (H-KKLLKWLLKLLKTTKS-NH2; N-terminus assumed), for which the MIC with E. coli ATCC 25922 (broth microdilution in MHB2, CLSI, value in parentheses) is 1.0 µM; against E. coli ATCC 25922 (broth microdilution in cation-adjusted Mueller-Hinton broth (MHB2), CLSI, range tested 1–1024 μg/mL) it was 2 µg/mL; with S. aureus ATCC 25923 (ATCC 25923) it was 16 µM; in the assay with S. aureus ATCC 25923 (S. aureus ATCC 25923, broth microdilution in MHB2, CLSI, range tested 1–1024 μg/mL), 32 µg/mL; against E. faecalis ATCC 29212 (ATCC 29212), 33 µM; in the assay with E. faecalis ATCC 29212 (E. faecalis ATCC 29212, broth microdilution in MHB2, CLSI, range tested 1–1024 μg/mL) it was 64 µg/mL. The MIC in assay [1] (MDR K. pneumoniae isolate KP004) worked out at 4 µg/mL (≈ 2.06 µM); in assay [1] (MDR K. pneumoniae isolate KP007), 8 µg/mL (≈ 4.12 µM); in assay [1] (MDR K. pneumoniae isolate KP010) it was 2 µg/mL (≈ 1.03 µM). For the same molecule, the “MIC values for K. pneumoniae” value in assay [1] (MDR clinical isolates of (KP004, KP007, KP010)) fell in the range of 1 to 4 µM. In addition, the “% reduction of metabolic activity in peptide-treated biofilms” value is listed as 79% in assay [2] (isolate KP004, 24 h preformed biofilm); 40% in assay [2] (isolate KP007, 24 h preformed biofilm); 77% in assay [2] (isolate KP010, 24 h preformed biofilm). Besides, the “MIC values against multidrug-resistant isolates” value in assay [3] was 0.5 to 4.1 µM. For the same molecule, in assay [4], the “minimal bactericidal concentrations (MBC)” value was “match the MIC in all cases”.
